Target: T1, Glutamate--cysteine ligase catalytic subunit (Homo sapiens, UniProt P48506)
T1 sequence (P48506 whole entry): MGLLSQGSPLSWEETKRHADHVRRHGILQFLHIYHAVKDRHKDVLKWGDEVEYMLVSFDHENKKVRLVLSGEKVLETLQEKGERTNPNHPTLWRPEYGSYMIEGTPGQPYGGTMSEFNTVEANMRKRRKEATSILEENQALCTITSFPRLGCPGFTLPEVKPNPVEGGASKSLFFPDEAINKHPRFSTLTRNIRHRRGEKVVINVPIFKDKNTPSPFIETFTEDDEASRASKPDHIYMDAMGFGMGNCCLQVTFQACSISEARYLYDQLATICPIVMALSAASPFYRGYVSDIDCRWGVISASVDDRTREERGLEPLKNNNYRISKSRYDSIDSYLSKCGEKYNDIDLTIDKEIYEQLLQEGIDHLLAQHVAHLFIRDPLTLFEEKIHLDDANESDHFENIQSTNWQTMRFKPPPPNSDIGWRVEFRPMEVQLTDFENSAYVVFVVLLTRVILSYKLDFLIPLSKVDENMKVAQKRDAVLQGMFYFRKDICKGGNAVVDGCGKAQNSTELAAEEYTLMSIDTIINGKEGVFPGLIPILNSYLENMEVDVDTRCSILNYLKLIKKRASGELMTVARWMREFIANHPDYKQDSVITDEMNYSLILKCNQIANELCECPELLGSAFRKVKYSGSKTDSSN
Assay: GCL Enzyme Profiling Assay
Experimental: Compound in pure DMSO was stamped in assay plates (Greiner black 384-well) or appropriate containers using a D300e digital dispenser (TECAN) and the final DMSO concentration was normalized to 1%. A 5 mL, or in the present case, 5 μL mixture of human recombinant GCL (final concentration: 5 nM) and ATP (final concentration: 0.6 mM) was added and the solution was incubated at room temperature (22° C.) for 1 h. […] The reaction was stopped after 1 h or in the present case, 2 h by addition of 5 mL, or in the present case, 5 μL ADP GLO Reagent (Promega). The resulting solution was incubated for 2 h at room temperature. This was then followed by addition of 5 mL, or in the present case, 5 μL ADP GLO Detection. After incubation at room temperature for 30 min, the plates were read on a plate reader (PheraStar) using a luminescence protocol to quantify the GCL enzyme activity from each reaction solution.

Structure (SMILES) | IC50
N=S(=O)(CCC(c1ccc(-c2ccc(Cl)cc2Cl)cc1)C(F)(F)F)CC[C@H](N)C(=O)O (stereo partly drawn) [US20260034094, Compound 269] | < 20 µM
N[C@@H](CCS(=O)(=O)CCC(O)(c1ncc(-c2ccc(Cl)cc2Cl)cn1)C(F)(F)F)C(=O)O (stereo partly drawn) [US20260034094, Compound 470] | < 20 µM
Cc1cc(F)ccc1-c1ccc(C(CCS(=N)(=O)CC[C@H](N)C(=O)O)C(F)(F)F)cc1 (stereo partly drawn) [US20260034094, Compound 278] | < 20 µM
N=S(=O)(CCC(CO)C(F)(F)F)CC[C@H](N)C(=O)O (stereo partly drawn) [US20260034094, Compound 320] | < 20 µM
N=S(=O)(CC[C@H](N)C(=O)O)CCC(O)(c1ncc(-c2ccccc2)cn1)C(F)(F)F (stereo partly drawn) [US20260034094, Compound 467] | < 20 µM
N=S(=O)(CCC(c1cccc(-c2ccc(Cl)cc2Cl)c1)C(F)(F)F)CC[C@H](N)C(=O)O (stereo partly drawn) [US20260034094, Compound 288] | < 20 µM
Cc1cc(Cl)ccc1-c1ccc(C(O)(CCS(=N)(=O)CC[C@H](N)C(=O)O)C(F)(F)F)cc1 (stereo partly drawn) [US20260034094, Compound 430] | < 20 µM
Cc1ccc(-c2ccc(C(CCS(=N)(=O)CC[C@H](N)C(=O)O)C(F)(F)F)cc2)cn1 (stereo partly drawn) [US20260034094, Compound 246] | < 20 µM
N=S(=O)(CCC(c1ccc(-c2ccsc2)cc1)C(F)(F)F)CC[C@H](N)C(=O)O (stereo partly drawn) [US20260034094, Compound 257] | < 20 µM
Cc1ccc(-c2ccc(C(O)(CCS(=N)(=O)CC[C@H](N)C(=O)O)C(F)(F)F)cc2)c(F)c1 (stereo partly drawn) [US20260034094, Compound 437] | < 20 µM
N=S(=O)(CC[C@H](N)C(=O)O)CCC1(c2ccc(Oc3ccc(Cl)cc3Cl)cc2)CCC1 (stereo partly drawn) [US20260034094, Compound 403] | < 20 µM
N=S(=O)(CCC(c1ccc(-c2ccc(F)cc2Cl)cc1)C(F)(F)F)CC[C@H](N)C(=O)O (stereo partly drawn) [US20260034094, Compound 271] | < 20 µM
N=S(=O)(CCC(c1ccc(C2=CCNCC2)cc1)C(F)(F)F)CC[C@H](N)C(=O)O (stereo partly drawn) [US20260034094, Compound 259] | < 20 µM
N=S(=O)(CCC(c1ccc(-c2ccc(Cl)cc2O)cc1)C(F)(F)F)CC[C@H](N)C(=O)O (stereo partly drawn) [US20260034094, Compound 282] | < 20 µM
N=S(=O)(CC[C@H](N)C(=O)O)CCC(O)(c1ccc(C2CCCCC2)cn1)C(F)(F)F (stereo partly drawn) [US20260034094, Compound 476] | < 20 µM
N=S(=O)(CC[C@H](N)C(=O)O)CCC(O)(c1cnc(-c2ccc(Cl)cc2Cl)cn1)C(F)(F)F (stereo partly drawn) [US20260034094, Compound 367] | < 20 µM
N=S(=O)(CCC(c1ccc(-c2cn[nH]c2)cc1)C(F)(F)F)CC[C@H](N)C(=O)O (stereo partly drawn) [US20260034094, Compound 227] | < 20 µM
COc1ccccc1-c1ccc(C(CCS(=N)(=O)CC[C@H](N)C(=O)O)C(F)(F)F)cc1 (stereo partly drawn) [US20260034094, Compound 264] | < 20 µM

Continued, values first:

IC50 | Structure (SMILES)
< 20 µM | N=S(=O)(CCC(c1ccc(-c2ccc(F)cc2O)cc1)C(F)(F)F)CC[C@H](N)C(=O)O (stereo partly drawn) [US20260034094, Compound 281]
< 20 µM | Cc1ccc(-c2cccc(C(CCS(=N)(=O)CC[C@H](N)C(=O)O)C(F)(F)F)c2)cc1 (stereo partly drawn) [US20260034094, Compound 285]
< 20 µM | N=S(=O)(CCC(c1ccc(Oc2ccc(Cl)cc2Cl)cc1)C(F)(F)F)CC[C@H](N)C(=O)O (stereo partly drawn) [US20260034094, Compound 318]
< 20 µM | N=S(=O)(CCC(c1ccc(-c2ccccc2)cc1Cl)C(F)(F)F)CC[C@H](N)C(=O)O (stereo partly drawn) [US20260034094, Compound 315]
< 20 µM | Cc1nc(Cl)ccc1-c1ccc(C(CCS(=N)(=O)CC[C@H](N)C(=O)O)C(F)(F)F)cc1 (stereo partly drawn) [US20260034094, Compound 248]
< 20 µM | N=S(=O)(CC[C@H](N)C(=O)O)CCC(O)(c1cnc(-c2ccc(Cl)cc2Cl)nc1)C(F)(F)F (stereo partly drawn) [US20260034094, Compound 366]
< 20 µM | Cc1cc(Cl)ccc1-c1ccc(C(CCS(=N)(=O)CC[C@H](N)C(=O)O)C(F)(F)F)cc1 (stereo partly drawn) [US20260034094, Compound 275]
< 20 µM | N=S(=O)(CCC(c1ccccc1O)C(F)(F)F)CC[C@H](N)C(=O)O (stereo partly drawn) [US20260034094, Compound 397]
< 20 µM | N=S(=O)(CCC(c1ccc(-c2ccc(O)cc2Cl)cc1)C(F)(F)F)CC[C@H](N)C(=O)O (stereo partly drawn) [US20260034094, Compound 270]
< 20 µM | N=S(=O)(CC[C@H](N)C(=O)O)CCC(O)(c1ccc(OC2CCCCC2)cc1)C(F)(F)F (stereo partly drawn) [US20260034094, Compound 339]
< 20 µM | N=S(=O)(CC[C@H](N)C(=O)O)CCC(O)(c1ccc(-c2ccco2)cn1)C(F)(F)F (stereo partly drawn) [US20260034094, Compound 481]
< 20 µM | C=Cc1ccc(C(CCS(=N)(=O)CC[C@H](N)C(=O)O)C(F)(F)F)cc1 (stereo partly drawn) [US20260034094, Compound 261]
< 20 µM | CC(C)(O)c1cccc(-c2ccc(C(CCS(=N)(=O)CC[C@H](N)C(=O)O)C(F)(F)F)cc2)c1 (stereo partly drawn) [US20260034094, Compound 241]
< 20 µM | N=S(=O)(CCC(c1ccc(-c2cccc(C(N)=O)c2)cc1)C(F)(F)F)CC[C@H](N)C(=O)O (stereo partly drawn) [US20260034094, Compound 229]
< 20 µM | N=S(=O)(CCC(c1ccc(-c2cnc(C3CC3)nc2)cc1)C(F)(F)F)CC[C@H](N)C(=O)O (stereo partly drawn) [US20260034094, Compound 252]
< 20 µM | Cc1ccc(-c2cccc(C(CCS(=N)(=O)CC[C@H](N)C(=O)O)C(F)(F)F)c2)cc1F (stereo partly drawn) [US20260034094, Compound 290]
< 20 µM | N=S(=O)(CCC(c1ccc(Oc2ccccc2)cc1)C(F)(F)F)CC[C@H](N)C(=O)O (stereo partly drawn) [US20260034094, Compound 316]
< 20 µM | Cc1ccc(-c2ccc(C(CCS(=N)(=O)CC[C@H](N)C(=O)O)C(F)(F)F)cc2)c(Cl)c1 (stereo partly drawn) [US20260034094, Compound 279]
< 20 µM | Cc1cccc(-c2cccc(C(CCS(=N)(=O)CC[C@H](N)C(=O)O)C(F)(F)F)c2)c1 (stereo partly drawn) [US20260034094, Compound 286]
< 20 µM | CC(C)(O)c1ccc(C(CCS(=N)(=O)CC[C@H](N)C(=O)O)C(F)(F)F)cc1 (stereo partly drawn) [US20260034094, Compound 263]

Reference: BindingDB's records for patent US20260034094 (Kojin Therapeutics, 2026)
